{
  "source": "patent US6242445A",
  "about": "“Benzimidazole derivative” (Kureha Chemical Industry Co., Ltd., priority 1998, dated 2001)",
  "key": {"[1]": {"tested_on": "rat suffering from hyperlipemia", "conditions": "Nephron, 65: 426-432, 1993, cited from earlier work"}, "[2]": {"tested_on": "rat suffering from a kidney disease", "conditions": "J. Clinical Invest., 90: 766-771, 1992; cited from earlier work"}, "[3]": {"tested_on": "kidney disease model rats", "assay": "Survival time of kidney diseased animals", "type": "in vivo, Sprague-Dawley female rats", "conditions": "20 mg/kg/day; observation period eight weeks (upper limit); control 5.0", "method": "(§1) In this Example, an action to lower blood pressure was evaluated. That is, each of 2-ethoxy-1-[[4'- (2'-N,N-dimethylamino-ethoxycarbonyl) phenyl]methyl]-1H-benzimidazole-6-carboxylic acid morpholide (Compound No. 13) prepared in Example 6, 2-ethoxy-1-[[4'-(2\"-morpholinoethoxycarbonyl)-phenyl]methyl]-1H-benzimidazole-6-carboxylic acid piperidinamide (Compound No. 57) prepared in Example 28, or the reference substance was forcibly orally administered to kidney disease model rats, and the action of lowering the blood pressure was observed. The kidney disease model rats were prepared by a ligature of branches of renal artery in accordance with a conventional method. Namely, the left hilum renalis of Sprague-Dawley female rats was exposed under anesthesia, and one of four secondary branches of the renal artery was left unligated, while the remaining three branches were ligated, respectively. After a week, the hilum renalis (artery, vein, and ureter) of the right kidney were further ligated to thereby prepare rats whose renal function was lowered to approximately 1/8 of the normal function. Each group consisted of eight rats. The drugs to be tested (20 mg/kg) were administered to each administering group, and only water was administered to a control group. Two days after the administration, the systolic blood pressure was measured by the tail cuff method using a blood pressure measuring apparatus (UR^5000; Ueda).\nIn this Example, an action to survival time of kidney diseased animals was evaluated. As compounds to be examined, 2-ethoxy-1-[[4'-(2\"-N,N-dimethylamino-ethoxycarbonyl)-phenyl]methyl]-1H-benzimidazole-6-carboxylic acid morpholide (Compound No. 13) prepared in Example 6, and 2-ethoxy-1-[[4'-(2\"-morpholinoethoxycarbonyl)phenyl]methyl]-1H-benzimidazole-6-carboxylic acid piperidinamide (Compound No. 57) prepared in Example 28 were used.\nThe kidney disease model rats were prepared as in Example 38. Fifteen groups (8 rats per group) were prepared in a manner such that there was no major difference between the groups in the serum creatinine value and the blood urea nitrogen value indicating renal function. The rats in each group were allowed to freely take up food and water. […] To the rats in the control group, only water was forcibly orally administered every day. If kidney diseases are aggravated, the rat will die of uremia. Thus, the survival time was observed as a comprehensive indication of the improvement of the effect on the kidney diseases. The observation period was eight weeks. Thus if all rats survived, the average survival time is eight weeks, and is an upper limit."}, "[4]": {"tested_on": "kidney disease model rats", "assay": "Action to kidney diseases, renal function indicatory values", "type": "in vivo, Sprague-Dawley female rats", "conditions": "20 mg/kg/day, two weeks", "method": "The kidney disease model rats were prepared by a ligature of branches of renal artery in accordance with a conventional method. Namely, the left hilum renalis of Sprague-Dawley female rats was exposed under anesthesia, and one of four secondary branches of the renal artery was left unligated, while the remaining three branches were ligated, respectively. After a week, the hilum renalis (artery, vein, and ureter) of the right kidney were further ligated to thereby prepare rats whose renal function was lowered to approximately 1/8 of the normal function. Each group consisted of eight rats. The drugs to be tested (20 mg/kg) were administered to each administering group, and only water was administered to a control group. Two days after the administration, the systolic blood pressure was measured by the tail cuff method using a blood pressure measuring apparatus (UR^5000; Ueda).\nIn this Example, an action to kidney diseases was evaluated on the basis of a renal function indicatory value.\nFifteen groups (8 rats per group) were prepared in a manner such that there was no major difference between the groups in the serum creatinine value and the blood urea nitrogen value indicating renal function. The rats in each group were allowed to freely take up food and water. […] To the rats in the control group, only water was forcibly orally administered every day. After two weeks, 0.2 ml of blood was collected from the carotid artery of the rats under anesthesia, and centrifuged to obtain serum. Using 25 μl of the serum, the serum creatinine (Scr) was measured by a creatinine analytical instrument (Beckman). Using 10 μl of the serum, the blood urea nitrogen (BUN) was measured by a BUN analytical instrument (Beckman). The creatinine clearance was evaluated as follows:\nAfter the serum creatinine measurement, rats were placed in urinary metabolic cages for 24 hours to collect urine. A urinary creatine concentration (Ucr) was measured by a creatinine analytical instrument, and a total volume of urination (Uvol) was also measured. The creatinine clearance (CCr) was calculated by the following formula: [formula]\nIn the above formula, the unit of \"Ucr\" and \"Scr\" is \"mg/ml\" and the unit of \"Uvol\" is \"ml\"."}, "[5]": {"tested_on": "kidney disease model rats", "assay": "Action to lower blood pressure in kidney disease model rats", "type": "in vivo, Sprague-Dawley female rats", "conditions": "20 mg/kg oral", "method": "as §1"}},
  "note": "Like-named read-outs stand apart in the source and are kept apart here.",
  "data": [
    {"molecule": "CCCCc1nc(Cl)c(CO)n1Cc1ccc(-c2ccccc2-c2nnn[nH]2)cc1", "note": "[DuP753, 2-butyl-4-chloro-5-(hydroxymethyl)-1-[[2'-(1H-tetrazole-5-yl)biphenyl-4-yl]methyl]imidazole, reference compound]", "values": [
      {"measurement": "lowering of the blood pressure", "setting": "[1]; higher dose", "result": "explicit lowering of the blood pressure"},
      {"measurement": "renal lesion", "setting": "[1]; higher dose", "result": "more effective in the renal lesion"},
      {"measurement": "influence on the blood pressure", "setting": "[1]; lower dose", "result": "without a substantial influence on the blood pressure"},
      {"measurement": "renal lesion", "setting": "[1]; lower dose", "result": "renal lesion is improved"},
      {"measurement": "effect in proteinuria and glomerulosclerosis", "setting": "[2]", "result": "effective in proteinuria and glomerulosclerosis"},
      {"measurement": "lowering of the blood pressure", "setting": "[2]", "result": "explicit lowering of the blood pressure"},
      {"measurement": "Average survival time", "setting": "[3]", "result": 6.9, "unit": "weeks"},
      {"measurement": "Creatinine clearance", "setting": "[4]; control 0.22", "result": 0.32, "unit": "mL/min"},
      {"measurement": "Creatinine", "setting": "[4]; serum, control 2.0", "result": 1.6, "unit": "mg/dL"},
      {"measurement": "Blood urea nitrogen", "setting": "[4]; serum, control 100", "result": 80, "unit": "mg/dL"},
      {"measurement": "action of lowering the blood pressure", "setting": "[5]; in comparison with the control group", "result": "clearly exhibited the action of lowering the blood pressure"},
      {"measurement": "Blood pressure", "setting": "[5]; systolic, tail cuff, average, two days after administration, control 210", "result": 130, "unit": "mmHg"}
    ]}
  ]
}
